How the values were obtained:
A. baumannii [1] = experiment: MIC by broth microdilution (CLSI), panel of 60 A. baumannii clinical isolates (Example 1); details: Acinetobacter baumannii, OXA-66
A. baumannii [2] = experiment: MIC90 of common antibiotics+compound 1, 196 contemporary clinical isolates of A. baumannii (Example 4); details: B-lactam + Cmpd 1 (4 μg/mL)
A. baumannii [3] = experiment: MIC, 20 diverse recent strains of A. baumannii (Example 10); type: cell-based, Acinetobacter baumannii; details: N 20 A. baumannii strains
Escherichia coli = experiment: MIC, recent Enterobacteriaceae clinical isolates: Escherichia coli (Examples 7, 11)
Klebsiella pneumoniae = experiment: MIC, recent Enterobacteriaceae clinical isolates: Klebsiella pneumoniae (Examples 7, 11)
Citrobacter spp = experiment: MIC, recent Enterobacteriaceae clinical isolates: Citrobacter spp (Examples 7, 11); type: cell-based

CC1(C)[C@H](C(=O)O)N2C(=O)C[C@H]2S1(=O)=O [Sulbactam, (2S,5R)-3,3-dimethyl-7-oxo-4-thia-1-azabicyclo[3.2.0]heptane-2-carboxylic acid 4,4-dioxide]
16 µg/mL: MIC (A. baumannii [1]; strain ARC5088, OXA-20, OXA-58) | MIC50 (A. baumannii [3])
128 µg/mL: MIC (Escherichia coli; Escherichia coli) | MIC (Escherichia coli; Escherichia coli ARC4471, CMY-2+, OXA-1+, TEM-1+) | MIC (Klebsiella pneumoniae; Klebsiella pneumoniae ARC4420, SHV-11, SHV-12, DHA-1, OXA-1) | MIC (Klebsiella pneumoniae; Klebsiella pneumoniae ARC4486, SHV-11, DHA-1, OXA-1[E69K])
64 µg/mL: MIC90 (A. baumannii [3]) | MIC50 (Escherichia coli; Escherichia coli) | MIC90 (Escherichia coli; Escherichia coli) | MIC (Escherichia coli; Escherichia coli, ATCC25922, Escherichia coli ARC4, none (ATCC 25922) CLSI control) | MIC (Escherichia coli; Escherichia coli, Escherichia coli ARC4421, CTX-M-55, TEM-1+, CMY-2+) | MIC (Escherichia coli; Escherichia coli, Escherichia coli ARC4429, TEM-1+, CMY-2+) | MIC (Escherichia coli; Escherichia coli, Escherichia coli ARC4449, CMY-2+, TEM-1+) | MIC (Escherichia coli; Escherichia coli, Escherichia coli ARC4450, TEM-1+, OXA-1+, CMY-2+) | MIC (Escherichia coli; Escherichia coli, Escherichia coli ARC4472, CMY-2+, TEM-1+) | MIC (Escherichia coli; Escherichia coli, Escherichia coli ARC4479, CMY-42+, OXA-1+, OXA-9+, TEM-1+) | MIC (Escherichia coli; Escherichia coli, Escherichia coli ARC4485, CMY-2+, OXA-1+, CTX-M-15+) | MIC (Escherichia coli; Escherichia coli, Escherichia coli ARC4487, SHV-5+, DHA-1+, TEM-1+, OXA-1+, CMY-2+) | MIC50 (Klebsiella pneumoniae) | MIC (Klebsiella pneumoniae; Klebsiella pneumoniae ARC4457, SHV-11, DHA-1) | MIC (Klebsiella pneumoniae; Klebsiella pneumoniae ARC4467, SHV-33, TEM-1, OXA-1, DHA-1) | MIC (Klebsiella pneumoniae; Klebsiella pneumoniae ARC4468, SHV-1) | MIC (Klebsiella pneumoniae; Klebsiella pneumoniae ARC4488, SHV-11, CTX-M15, OXA-1, TEM-1) | MIC (Citrobacter spp; Citrobacter koseri ARC2001, ESBL) | MIC (Citrobacter spp; Citrobacter koseri ARC2002, ESBL)
32 µg/mL: MIC (A. baumannii [1]; strain ARC5086, OXA*, TEM-1, OXA-72) | MIC (A. baumannii [1]; strain ARC5087, OXA-23) | MIC (A. baumannii [1]; strain ARC5089, PER*, TEM-1, OXA-23) | MIC (Escherichia coli; Escherichia coli, Escherichia coli ARC4416, CTX-M-14+, TEM-1+) | MIC (Escherichia coli; Escherichia coli, Escherichia coli ARC4418, CTX-M-14+, CMY-2+) | MIC (Escherichia coli; Escherichia coli, Escherichia coli ARC4419, SHV-12+) | MIC (Escherichia coli; Escherichia coli, Escherichia coli ARC4426, TEM-1+, CMY-2+) | MIC (Escherichia coli; Escherichia coli, Escherichia coli ARC4436, CTX-M-14+, TEM-1+) | MIC (Escherichia coli; Escherichia coli, Escherichia coli ARC4452, SHV-12+) | MIC (Escherichia coli; Escherichia coli, Escherichia coli ARC4455, SHV-12+) | MIC (Escherichia coli; Escherichia coli, Escherichia coli ARC4465, CMY-2+) | MIC (Escherichia coli; Escherichia coli, Escherichia coli ARC4477, CTX-M-15+, TEM-1+) | MIC (Escherichia coli; Escherichia coli, Escherichia coli ARC4478, CTX-M-15+, CMY-2+) | MIC (Klebsiella pneumoniae; Klebsiella pneumoniae ARC4482, SHV-27[A122V], OXA-1) | MIC (Citrobacter spp; Citrobacter braakii ARC3660, CTX-M-15)
2 µg/mL: MIC90 (A. baumannii [2]) | MIC Min (A. baumannii [3])
256 µg/mL: MIC (Klebsiella pneumoniae; Klebsiella pneumoniae ARC4490, SHV-11, CTX-M15, KPC-2, OXA-1) | MIC50 (Citrobacter spp; Citrobacter) | MIC (Citrobacter spp; Citrobacter freundii ARC3883, KPC-2) | MIC (Citrobacter spp; Citrobacter freundii ARC3884, KPC-2) | MIC (Citrobacter spp; Citrobacter freundii ARC3885, AmpH, TEM-1, SHV-5, CMY-6, CMY-13)
> 64 µg/mL: MIC Max (A. baumannii [3])
> 256 µg/mL: MIC90 (Klebsiella pneumoniae) | MIC (Klebsiella pneumoniae; Klebsiella pneumoniae ARC4427, SHV-1, OXA-1) | MIC (Klebsiella pneumoniae; Klebsiella pneumoniae ARC4451, SHV-11, KPC-3) | MIC (Klebsiella pneumoniae; Klebsiella pneumoniae ARC4460, SHV-11, CTX-M15, OXA-1, NDM-1) | MIC (Klebsiella pneumoniae; Klebsiella pneumoniae ARC4476, SHV-11, KPC-2, OXA-9[W117*]) | MIC90 (Citrobacter spp; Citrobacter) | MIC (Citrobacter spp; Citrobacter freundii ARC3522, AmpC, TEM-1, CMY65)
